row,Compound,melting point
1,N#CC[C@@H](O)CC(=O)NN,134 to 136 °C
2,CC(=O)NC[C@H]1CN(c2ccc(C3CCN(C(=O)O)CC3)c(F)c2)C(=O)O1,144 to 146 °C
3,Cc1nc(S(=O)(=O)Cc2ccc(Cl)cc2)nc2c1CCCC2,151 °C
4,CSc1cc(C)nc(SC)c1NC(=O)CCCBr,139 to 140 °C
5,CN1Cc2nc3ccccc3c(=O)n2-c2ccccc2C1=O,204 to 206 °C
6,O=C(Nc1ccc(Sc2c(O)c3c(Cl)cc(Cl)cc3[nH]c2=O)cc1)c1cccnc1,> 300 °C
7,CCc1c(CO)oc2ccc(Br)cc12,93 to 94 °C
8,COC(C)(C)[C@H]1CCCN1NC(=O)Nc1cccc2c1C(=O)c1c-2n[nH]c1-c1ccc(N2CCNCC2)cc1,218 °C
9,O=[N+]([O-])c1cc(-c2cn3ncsc3n2)cc(O)c1O,278 to 280 °C
10,CCOC(=O)Cc1ccccc1Oc1ccc(C)cc1,75 °C
11,COc1cc(Br)c(OC)c2c1C=CCC2,110 to 111 °C
12,COc1ccc2c(c1)-c1cc(OC)ccc1C2=O,123 to 125 °C
13,CN(Cc1ccccc1)c1nc(N2CCC(NCC(c3ccccc3)c3ccccc3)CC2)nc2c(N3CCOCC3)ncnc12,106 to 108 °C
14,CC(=O)C1CCC2C3CCC4CC(O)C(N5CCSC(C)(C)C5)CC4(C)C3CCC12C (stereo not given),184 to 185 °C
15,Clc1ccc(C2CC(n3cncn3)c3ccccc3N2)cc1 (stereo not given),150 to 152 °C
16,COC(=O)CCCC#Cc1cc(Cl)ccc1NS(=O)(=O)c1cn(C)cn1,76 to 79 °C
17,CC(C)(C)NS(=O)(=O)c1cc2c(s1)S(=O)(=O)NCC2=O,170 to 172 °C
18,CC(C)(C)C(C)(C)Nc1nc(NC(C)(C)C(C)(C)C)nc(N2CC3CCC(CC3)C2)n1,282 to 284 °C
19,Cc1ccc2c(-c3cnc4[nH]cc(C(=O)N[C@H](C)C(=O)N5CC(C#N)C5)c4n3)nn(C)c2c1,260 to 275 °C
20,CCOC(=O)C(=CNc1c(C#N)cnn1-c1ccc(Cl)c(Cl)c1Cl)C(=O)OCC,157 to 158 °C

# Continued, values first:
row,melting point,Compound
1,102 to 105 °C,CCCCC(=O)Nc1cccc(-n2nc(CCCC)n(Cc3ccc(-c4ccccc4S(=O)(=O)NC(=O)c4ccccc4Cl)cc3)c2=O)c1
2,93 to 95 °C,COc1cc(OC)c2c(=O)[nH]c(-c3ccc(OCCNC(C)C)c(-c4ccc(S(C)=O)cc4)n3)nc2c1 (stereo not given)
3,199 to 200 °C,O=C(NC1CCCCC1)C12CC3CC(CC(C3)C1)C2
4,53 to 56 °C,CN1Cc2cscc2N(CCc2ccccc2)c2ccccc21
5,155 to 157 °C,CC(c1ccccc1N1CCCC1)C(C(N)=O)c1ccc(C(=O)O)cc1 (stereo not given)
6,69 to 71 °C,CC(C)C(C(=O)CCC(NC(=O)OCc1ccccc1)C(=O)OCc1ccccc1)C(=O)OC(C)(C)C (stereo not given)
7,82 to 83 °C,C[C@@H](CCCCC(=O)O)NC(=O)OCc1ccccc1
8,162 to 164 °C,O=C1OCCC1=Cc1ccccc1O
9,136 to 137 °C,Cc1cc(C(=O)c2ccccc2C(F)(F)F)c(N)s1
10,137 to 138 °C,COc1ccc([N+](=O)[O-])c(C#N)c1CBr
11,207 to 209 °C,CCCCCCNC1=NS(=O)(=O)c2sc(Cl)cc2N1
12,153 to 155 °C,COC(=O)c1cccc2[nH]ncc12
13,53 to 56 °C,CCOC(=O)C(=Cc1ccc(C)s1)C(=O)OCC
14,162 to 163 °C,CC(C)(C)OC(=O)NC1CCC(CON2C(=O)c3ccccc3C2=O)C1 (stereo not given)
15,225 to 227 °C,COc1ccnc(CS(=O)c2nc3cc(C(F)(F)F)ccc3[nH]2)c1C (stereo not given)
16,80 °C,COc1cc(N2CCN(CCc3coc4ccc(F)cc34)CC2)c2ncccc2c1
17,108 to 110 °C,CCCCCCCCCC(C)CNc1cccc(-c2ccnc3c(C(=O)c4cccs4)cnn23)c1 (stereo not given)
18,222 to 224 °C,CC(C)n1c(C=O)c(-c2ccc(F)cc2)c(-c2ccccc2)c1C(=O)Nc1ccccc1
19,152 °C,Cc1nn(C)c(C)c1C(=O)Nc1cccc2c1CCC2(C)C
20,> 280 °C,N#CCC(=O)Nc1ccc(-c2ccc(C(=O)O)c(=O)[nH]2)cc1

# Reference: a melting point compilation (Tetko et al.; mined from patent text by program, amines drawn as free bases though some values may be those of a salt)
